Measured values as given in patent publication US5436229A, “Bisulfite adducts of arginine aldehydes” (Eli Lilly and Company, priority 1994, dated 1995).

Key:
human thrombin = human thrombin (Homo sapiens, UniProt P00734); assay: Thrombin amidase inhibition (Kass), chromogenic substrate; assay type: biochemical
Procedure, shortened: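 Purified human thrombin (8 NIH units/ml solution) mixed with compound in 50% aqueous methanol and 0.03M Tris, 0.15M NaCl, pH 7.4; chromogenic substrate (0.25 mg/ml solution) added, p-nitroaniline release followed at 405 nm. Free thrombin read from a standard curve; Kass (L/mol) is the mean over a range of compound concentrations.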

[1] = Index of Bioavailability (plasma TT AUC, oral vs i.v.); assay type: in vivo; conditions: rats, oral vs i.v. bolus
From the text: Assays are done in duplicate and averaged.
Each sample population represents alternating sequential time points.

human plasma [2] = assay: Human plasma anticoagulation, activated partial thromboplastin time (APTT); assay type: biochemical
Procedure, shortened: (§1)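 Compounds added across a wide concentration range to human plasma; APTT, PT and TT clotting times measured on a coagulation instrument, bovine thrombin used for plasma assays. Concentration doubling clotting time estimated by linear extrapolation.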

[3] = target: T1, tissue plasminogen activator (t-PA) (Homo sapiens, UniProt P00750); assay: Serine protease inhibition (Kass), t-PA; assay type: biochemical
T1 construct: purchased American Diagnostica, Greenwich, Conn
T1 sequence (P00750 36-562): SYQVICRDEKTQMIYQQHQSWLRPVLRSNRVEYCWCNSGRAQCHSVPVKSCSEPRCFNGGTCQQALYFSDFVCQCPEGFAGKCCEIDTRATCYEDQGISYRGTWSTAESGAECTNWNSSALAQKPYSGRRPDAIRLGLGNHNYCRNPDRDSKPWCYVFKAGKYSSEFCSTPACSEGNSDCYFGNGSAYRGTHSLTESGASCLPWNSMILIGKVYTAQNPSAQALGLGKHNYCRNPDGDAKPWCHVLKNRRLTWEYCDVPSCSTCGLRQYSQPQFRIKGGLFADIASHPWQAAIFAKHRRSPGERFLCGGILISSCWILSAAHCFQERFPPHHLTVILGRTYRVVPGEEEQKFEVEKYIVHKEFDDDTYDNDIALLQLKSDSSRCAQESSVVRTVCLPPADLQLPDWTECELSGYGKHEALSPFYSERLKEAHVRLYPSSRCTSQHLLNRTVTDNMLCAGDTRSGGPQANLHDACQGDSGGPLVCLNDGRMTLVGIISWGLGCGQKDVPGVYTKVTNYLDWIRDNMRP

Bovine trypsin = target: T2, Bovine trypsin (Bos taurus, UniProt P00760); assay: Serine protease inhibition (Kass), trypsin; assay type: biochemical
T2 construct: Bovine trypsin is purchased from Worthington Biochemicals; purchased Worthington Biochemicals, Freehold, N.J
T2 sequence (P00760 24-246): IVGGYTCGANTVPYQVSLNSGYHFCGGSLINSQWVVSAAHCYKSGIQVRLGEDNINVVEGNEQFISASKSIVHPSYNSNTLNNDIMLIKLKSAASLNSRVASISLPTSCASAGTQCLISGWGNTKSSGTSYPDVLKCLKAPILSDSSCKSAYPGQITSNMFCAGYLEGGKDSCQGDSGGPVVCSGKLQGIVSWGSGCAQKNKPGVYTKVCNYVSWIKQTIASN
Procedure, shortened: (§2)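 Chromogenic p-nitroanilide substrate assays run as for human thrombin; trypsin with N-Benzoyl-Phe-Val-Arg-p-nitroanilide, human factor Xa with N-Benzoyl-Ile-Glu-Gly-Arg-p-nitroanilide. Values are association constants (Kass).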

Human plasmin = target: T3, Human plasmin (Homo sapiens, UniProt P00747); assay: Serine protease inhibition (Kass), plasmin; assay type: biochemical
T3 construct: Human plasmin is purchased from Boehringer Mannheim; purchased Boehringer Mannheim, Indianapolis, Ind
T3 sequence (P00747 581-810 limits assumed): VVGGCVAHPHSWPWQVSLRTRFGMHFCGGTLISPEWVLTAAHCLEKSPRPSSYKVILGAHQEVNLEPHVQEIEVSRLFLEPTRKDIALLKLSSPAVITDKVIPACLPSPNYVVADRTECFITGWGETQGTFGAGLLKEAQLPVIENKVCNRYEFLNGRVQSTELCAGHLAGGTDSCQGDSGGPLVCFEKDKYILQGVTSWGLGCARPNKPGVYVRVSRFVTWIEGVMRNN
T3 sequence (P00747 97-580 partner limits assumed): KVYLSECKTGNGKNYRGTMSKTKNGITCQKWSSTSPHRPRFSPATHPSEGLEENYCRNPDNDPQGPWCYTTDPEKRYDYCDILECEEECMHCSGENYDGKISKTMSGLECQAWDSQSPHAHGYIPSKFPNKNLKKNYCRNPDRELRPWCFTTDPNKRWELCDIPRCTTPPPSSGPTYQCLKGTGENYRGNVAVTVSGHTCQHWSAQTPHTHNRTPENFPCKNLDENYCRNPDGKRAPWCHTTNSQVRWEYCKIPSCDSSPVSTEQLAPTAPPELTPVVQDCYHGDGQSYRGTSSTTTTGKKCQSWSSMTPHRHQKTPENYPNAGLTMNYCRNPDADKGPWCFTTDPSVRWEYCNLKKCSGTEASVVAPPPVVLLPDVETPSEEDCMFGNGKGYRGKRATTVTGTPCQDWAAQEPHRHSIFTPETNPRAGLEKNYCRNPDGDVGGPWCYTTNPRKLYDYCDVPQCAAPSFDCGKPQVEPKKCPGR
Procedure, shortened: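 Chromogenic enzyme assays run as for human thrombin, giving association constants (Kass). Human plasmin used with H-D-Val-Leu-Lys-p-nitroanilide; t-PA (single-chain nt-PA or modified mt-PA6) with H-D-Ile-Pro-Arg-p-nitroanilide.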

human plasma [4] = assay: Human plasma anticoagulation, thrombin time (TT); assay type: biochemical
Procedure, shortened: as §1

human plasma [5] = assay: Human plasma anticoagulation, prothrombin time (PT); assay type: biochemical
Procedure, shortened: as §1

factor Xa = target: T4, factor Xa (Homo sapiens, UniProt P00742); assay: Serine protease inhibition (Kass), factor Xa; assay type: biochemical
T4 construct: Human factors X, Xa, IXa, XIa, and XIIa are purchased from Enzyme Research Laboratories; purchased Enzyme Research Laboratories, South Bend, Ind
T4 sequence (P00742 235-488 limits assumed): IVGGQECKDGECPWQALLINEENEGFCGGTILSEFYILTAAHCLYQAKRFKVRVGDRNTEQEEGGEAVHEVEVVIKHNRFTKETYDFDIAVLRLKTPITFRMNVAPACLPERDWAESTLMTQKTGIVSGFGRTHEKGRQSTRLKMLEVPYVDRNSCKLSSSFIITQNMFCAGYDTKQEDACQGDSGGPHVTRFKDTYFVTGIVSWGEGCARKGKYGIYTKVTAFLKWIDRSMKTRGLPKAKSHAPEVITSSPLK
T4 sequence (P00742 41-179 partner limits assumed): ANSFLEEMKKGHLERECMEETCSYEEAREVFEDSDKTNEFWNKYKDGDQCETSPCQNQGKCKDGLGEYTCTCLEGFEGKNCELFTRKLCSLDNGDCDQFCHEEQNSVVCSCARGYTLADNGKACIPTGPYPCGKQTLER
Procedure, shortened: as §2

| Molecule | Kass Human Thrombin (human thrombin) | Percent Relative Activity (Index of Bioavailability) [1] [%] | 2 × Clotting time APTT (human plasma [2]) | Kass t-PA [3] [L/mol × 10^6] | Kass Trypsin (Bovine trypsin) [L/mol × 10^6] | Kass Plasmin (Human plasmin) [L/mol × 10^6] | 2 × Clotting time TT (human plasma [4]) [ng/mL] | 2 × Clotting time PT (human plasma [5]) | Kass Xa (factor Xa) [L/mol × 10^6] | inhibition at 13 µg/mL ([3]; at 13 μg/mL, read-out: inhib. of t-PA) [%] |
| --- | --- | --- | --- | --- | --- | --- | --- | --- | --- | --- |
| CNC(CC(=O)N1CCC[C@H]1C(=O)N[C@H](C=O)CCCNC(=N)N)C1CCCCC1.CNC(CC(=O)N1CCC[C@H]1C(=O)N[C@H](C=O)CCCNC(=N)N)C1CCCCC1.Cl.Cl.Cl.Cl.O (stereo partly drawn) [Example 16, N-methyl-3-amino-3-cyclohexyl propionyl-L-Pro-L-Arg aldehyde dihydrochloride hemihydrate] | 85 L/mol × 10^6 | 19 |  |  |  |  |  |  |  |  |
| CNCC(Cc1ccccc1)C(=O)N1CCC[C@H]1C(=O)N[C@H](C=O)CCCNC(=N)N.Cl.Cl.O (stereo partly drawn) [Example 17, N-Methyl-3-amino-2-benzylpropionyl-L-Pro-L-Arg Aldehyde Dihydrochloride Monohydrate] | 12 L/mol × 10^6 | 8 |  |  |  |  |  |  |  |  |
| Cl.Cl.Cl.N=C(N)NCCC[C@@H](C=O)NC(=O)[C@@H]1CCCN1C(=O)C1CCCCC1N.O (stereo partly drawn) [Example 22, 2-aminocyclohexylcarbonyl-L-Pro-L-Arginine Aldehyde Trihydrochloride Monohydrate] | 39 L/mol × 10^6 | 15 |  |  |  |  |  |  |  |  |
| Cl.Cn1c(C(=O)N[C@H](Cc2ccccc2)C(=O)N2CCC[C@H]2C(=O)N[C@H](C=O)CCCNC(=N)N)cc2ccccc21 [Example 45, N-(1-methylindolyl-2-carbonyl)-D-phenylalanyl-L-Prolinyl-L-Arginine Aldehyde Hydrochloride] | 850 L/mol × 10^6 | 2 | 440 ng/mL | 31 | 120 | 7.9 | 43 | 870 ng/mL | 0.51 |  |
| Cl.N=C(N)NCCC[C@@H](C=O)NC(=O)[C@@H]1CCCN1C(=O)[C@@H](Cc1ccccc1)NC(=O)c1cc2ccccc2cn1 [Example 46, N-(isoquinolinyl-2-carbonyl)-D-phenylalanyl-L-Prolinyl-L-Arginine Aldehyde Hydrochloride] | 110 L/mol × 10^6 | 1 | 1,100 ng/mL | 0.32 | 22 | 0.55 | 35 | 1,400 ng/mL | 0.16 |  |
| Cl.N=C(N)NCCC[C@@H](C=O)NC(=O)[C@@H]1CCCN1C(=O)[C@@H](Cc1ccccc1)NC(=O)c1cccnc1 [Example 47, N-(nicotinoyl)-D-phenylalanyl-L-Prolinyl-L-Arginine Aldehyde Hydrochloride] | 58 L/mol × 10^6 | 3 | 1,300 ng/mL | 0.17 | 12 | 0.41 | 47 | 1,700 ng/mL | 0.080 |  |
| CS(=O)(=O)N[C@H](Cc1ccccc1)C(=O)N1CCC[C@H]1C(=O)N[C@H](C=O)CCCNC(=N)N.Cl [Example 51, N-(methylsulfonyl)-D-phenylalanyl-L-Prolinyl-L-Arginine Aldehyde Hydrochloride] | 690 L/mol × 10^6 | 27 | 330 ng/mL | 13 | 220 | 17 | 21 | 530 ng/mL | 2.4 |  |
| CCS(=O)(=O)N[C@H](Cc1ccccc1)C(=O)N1CCC[C@H]1C(=O)N[C@H](C=O)CCCNC(=N)N.Cl [Example 52, N-(ethylsulfonyl)-D-phenylalanyl-L-Prolinyl-L-Arginine Aldehyde Hydrochloride] | 450 L/mol × 10^6 | 31 | 260 ng/mL | 2.9 | 260 | 31 | 9 | 660 ng/mL | 2.6 |  |
| CCCS(=O)(=O)N[C@H](Cc1ccccc1)C(=O)N1CCC[C@H]1C(=O)N[C@H](C=O)CCCNC(=N)N.Cl [Example 53, N-(n-propylsulfonyl)-D-phenylalanyl-L-Prolinyl-L-Arginine Aldehyde Hydrochloride] | 1,700 L/mol × 10^6 | 14 | 220 ng/mL | 2.8 | 480 | 29 | 6 | 510 ng/mL | 13 |  |
| CCCCS(=O)(=O)N[C@H](Cc1ccccc1)C(=O)N1CCC[C@H]1C(=O)N[C@H](C=O)CCCNC(=N)N.Cl [Example 54, N-(n-butylsulfonyl)-D-phenylalanyl-L-Prolinyl-L-Arginine Aldehyde Hydrochloride] | 470 L/mol × 10^6 | 18 | 300 ng/mL | 0.83 | 230 | 27 | 18 | 700 ng/mL | 8.3 |  |
| CC(C)S(=O)(=O)N[C@H](Cc1ccccc1)C(=O)N1CCC[C@H]1C(=O)N[C@H](C=O)CCCNC(=N)N.Cl [Example 55, N-(isopropylsulfonyl)-D-phenylalanyl-L-Prolinyl-L-Arginine Aldehyde Hydrochloride] | 460 L/mol × 10^6 | 10 | 270 ng/mL | 3.5 | 260 | 25 | 13 | 510 ng/mL | 6.0 |  |
| CN(C)S(=O)(=O)N[C@H](Cc1ccccc1)C(=O)N1CCC[C@H]1C(=O)N[C@H](C=O)CCCNC(=N)N.Cl [Example 56, N-(dimethylaminosulfonyl)-D-phenylalanyl-L-Prolinyl-L-Arginine Aldehyde Hydrochloride] | 300 L/mol × 10^6 | 26 | 360 ng/mL |  | 160 | 21 | 46 | 480 ng/mL | 3.9 | 100 |
| CN[C@@H](C(=O)N1CCC[C@H]1C(=O)N[C@@H](CCCNC(=N)N)C(O)S(=O)(=O)[O-])c1ccccc1.O=S(=O)(O)O.[Na+] (stereo partly drawn) [Example 79, N-methyl-D-phenylglycinyl-L-prolinyl-NH-CH[(CH2)3 NH-C(NH)-NH2]-C(OH)SO3 Na.H2 SO4] | 239 L/mol × 10^6 | 21 |  | 0.01 | 84 | 1.8 |  |  |  |  |
| N=C(N)NCCC[C@H](NC(=O)[C@@H]1CCCN1C(=O)C1CC2CCCCC2CN1)C(O)S(=O)(=O)[O-].O=S(=O)(O)O.[Na+] (stereo partly drawn) [Example 80, D-1,2,3,4,4a,6,7,8,8a-Perhydroisoquinolin-3-yl carbonyl-L-prolinyl-L-arginine aldehyde bisulfite sulfate] | 62 L/mol × 10^6 | 57 |  | 0.01 | 137 | 2.7 |  |  |  |  |
| D-Prolinyl-L-Prolinyl-L-Arginine Aldehyde Dihydrochloride [Example 2] | 12 L/mol × 10^6 | 36 |  |  |  |  |  |  |  |  |
| N-methyl-D-Phg-Pro-Arg-H.H2 SO4 [79 (Step A)] | 236 L/mol × 10^6 | 18 |  | 0.01 | 87 | 1.3 |  |  |  |  |
